This is an account of results in ChEMBL document CHEMBL1156829 (Proc Natl Acad Sci U S A, 2008).

Molecules are shown by their SMILES.

Data set [1] relates to Plasmodium falciparum. As to the kind of experiment: NOVARTIS: Inhibition of Plasmodium falciparum 3D7 (drug-susceptible) proliferation in erythrocyte-based infection assay. It is filed as functional, organism-based. The conditions noted are these: Plasmodium falciparum, 3D7.
The test system of data set [2] is Plasmodium falciparum. The experiment in a line: NOVARTIS: Inhibition of Plasmodium falciparum W2 (drug-resistant) proliferation in erythrocyte-based infection assay. It is filed as functional, organism-based. To be noted: Plasmodium falciparum, W2; read-out: EC50.
The nature of data set [3]: NOVARTIS: Cytotoxicity against human hepatocellular carcinoma cell line (Huh7). It is filed as toxicity, cell-based, Huh-7. The conditions noted are these: Huh7 cells (hepatocellular carcinoma cell line).

Regarding `NC1(C(=O)O)CCc2cc(C(=O)O)ccc21` (configuration not stated), the EC50 in data set [1] was above 1160 nM; in data set [2], 833 nM. Moreover, the CC50 in data set [3] was above 10000 nM.
As for `O=[N+]([O-])c1ccc2nc(Nc3ccc(Cl)c(Cl)c3)c(Nc3ccc(Cl)c(Cl)c3)nc2c1`, the EC50 turned out to be 7230 nM in data set [1] and 7040 nM in data set [2]. The CC50 in data set [3] was above 85400 nM.
The corresponding values for `Oc1ccc(-c2nc(-c3ccc4oc5ccc(-c6[nH]c(-c7ccc(O)cc7)nc6-c6ccccc6)cc5c4c3)c(-c3ccccc3)[nH]2)cc1` are 3300 nM, 8280 nM and above 100000 nM.
`CC(C)c1ccc2c(c1)c1c3c([n+](C)ccn32)CCC1`: the EC50 in data set [1] came to 1720 nM; in data set [2], 2630 nM. In data set [3], this molecule registered a CC50 of 31800 nM.
Taken in the same sequence, the figures for `CCc1cccc(NC(=O)CCCn2c(=O)c3cccn3c3ccccc32)c1` were above 1560 nM, 826 nM and above 10000 nM.
Taken in the same sequence, the figures for `COC(=O)[C@@H]1C[C@@H](NC(=O)c2ccc(OC)cc2OC)CN1C/C(C)=C/c1ccccc1` were 432 nM, 821 nM and above 10000 nM.
The corresponding values for `CCN(c1ccc(F)cc1)S(=O)(=O)c1ccc2[nH]cc(C(=O)NC(C)(C)C)c(=O)c2c1` are above 1600 nM, 830 nM and above 10000 nM.
Take `CC(=O)OC1CCC2(C)C(CCC3C2CCC2(C)C3CC(O)C2(O)C(C)=O)C1` (configuration not stated): the EC50 was above 1250 nM in data set [1] and above 826 nM in data set [2]. This molecule registered a CC50 in data set [3] above 10000 nM.
Consider `CCc1ccc(-n2c(C(CC)N(CCC(C)C)C(=O)Nc3ccc(Cl)c(Cl)c3)nc3ccccc3c2=O)cc1` (configuration not stated), for which the EC50 in data set [1] is above 1250 nM; in data set [2], above 830 nM. For the same molecule, the CC50 in data set [3] is above 10000 nM.
Take `Nc1nc(N)c2cc(S(=O)(=O)N3CCSCC3)ccc2n1`: the EC50 in data set [1] is 116 nM; in data set [2], above 1250 nM. The molecule also registered a CC50 in data set [3] of 15100 nM.
Taken in the same sequence, the figures for `O=C(CSc1cn(CCNC(=O)c2ccc(F)cc2)c2ccccc12)Nc1ccccc1F` were above 12500 nM, above 8090 nM and above 98900 nM.
In the case of `Cc1ccc2c(c1)N(CC(=O)NC1CCCCC1C)C(=O)CO2` (configuration not stated), the EC50 in data set [1] was 2010 nM; in data set [2], above 815 nM. This molecule gave a CC50 in data set [3] above 10000 nM.
Taken in the same sequence, the figures for `Cc1ccc(NC(=O)N2CCN(CCN(Cc3ccc(F)cc3)C(=O)c3ccccc3C)CC2)cc1` were above 1740 nM, 818 nM and above 10000 nM.
For the molecule `O=[N+]([O-])c1ccc(-c2cn3nc(C(F)(F)F)sc3n2)cc1`, the EC50 is 1050 nM in data set [1] and 818 nM in data set [2]. For the same molecule, in data set [3], the CC50 was above 10000 nM.
Regarding `COc1ccc(/C=C/C(=O)Nc2ccncc2)cc1OC`, the EC50 in data set [1] amounted to 593 nM; in data set [2] it was 828 nM. The CC50 in data set [3] is above 10000 nM.
`CCCCCC[P+](N(CCC)CCC)(N(CCC)CCC)N(CCC)CCC`: the figures for the EC50 in data set [1] and in data set [2] were 70.4 nM and 95.6 nM, respectively. The molecule further registered a CC50 in data set [3] of 1160 nM.
Take `CCCCCN(C(=O)Nc1ccccc1OC)C(CC)c1nc2ccccc2c(=O)n1-c1ccccc1OC` (configuration not stated): the EC50 was determined as 780 nM in data set [1] and 835 nM in data set [2]. In addition, the CC50 in data set [3] is above 10000 nM.
`CCOc1ccc(NC(=O)c2ccc(I)o2)cc1`: the EC50 in data set [1] was 4850 nM; in data set [2] it was 5790 nM. Moreover, the midpoint of cytotoxicity in data set [3], the CC50, lay at 69600 nM.
As to `CC1CCN(C(=O)C(C)N(c2ccccc2)S(C)(=O)=O)CC1` (configuration not stated), the EC50 was 7200 nM in data set [1] and 8320 nM in data set [2]. This molecule had a CC50 in data set [3] above 100000 nM.
Taken in the same sequence, the figures for `CCOC(=O)C1=C(C)N(CCNc2ncc(C(F)(F)F)cc2Cl)C(=O)CC1` were 7670 nM, 8350 nM and above 100000 nM.
The corresponding values for `COc1cc(NC(C)CCCN(Cc2ccc(OC)c(OC)c2)C(=O)CCC2CCCC2)c2ncccc2c1` (configuration not stated) are 687 nM, 333 nM and 3990 nM.
As for `CCCCN(CCCC)[P+](N(CCCC)CCCC)(N(CCCC)CCCC)N(CCCC)CCCC`, the EC50 in data set [1] amounted to 224 nM; in data set [2] it was 65.4 nM. The CC50 in data set [3] came out at 784 nM.
As to `CCOc1ccccc1-n1c(C(C)N(CCc2ccccc2)C(=O)c2ccc(Br)cc2)nc2ccccc2c1=O` (configuration not stated), the EC50 in data set [1] is above 1250 nM; in data set [2] it was 834 nM. For the same molecule, the CC50 in data set [3] is above 10000 nM.
Turning to `CCCCc1ccc(C(=O)N(CC(=O)Nc2cc(C(C)(C)C)nn2-c2ccc(Cl)cc2)C(C)C)cc1`, the EC50 in data set [1] is above 1380 nM; in data set [2], above 832 nM. The CC50 in data set [3] was above 10000 nM.
The corresponding values for `CCc1ccc2c(c1)c1nnc(SCC(=O)NCCOC)nc1n2C` are above 1250 nM, above 838 nM and above 10000 nM.
The corresponding values for `CCc1nnc2n1N(C(C)=O)C(c1ccc(Cl)c(Cl)c1)=C(C(C)=O)S2` are above 1250 nM, above 835 nM and above 10000 nM.
Regarding `CCCCCCN(C(=O)COCc1ccccc1)C(CC)c1nc2ccccc2c(=O)n1-c1ccc(F)c(Cl)c1` (configuration not stated), the figures for the EC50 in data set [1] and in data set [2] were 607 nM and 821 nM, respectively. In data set [3], the 50% cytotoxic concentration (CC50) is above 10000 nM.
Taken in the same sequence, the figures for `Nc1c(C(=O)c2ccc(Br)cc2)sc2nc(-c3cccnc3)ccc12` were 1300 nM, above 1090 nM and above 13000 nM.
Regarding `COc1ccccc1Cc1nc2ccccc2nc1SCC(=O)Nc1cccc(C(F)(F)F)c1`, the results for the EC50 in data set [1] and in data set [2] were above 5520 nM and above 8340 nM, respectively. In data set [3], this molecule yielded a CC50 above 100000 nM.
The corresponding values for `COc1cc(NC(C)CCCN(Cc2ccccc2OC)C(=O)Nc2cccc(F)c2)c2ncccc2c1` (configuration not stated) are above 1660 nM, 840 nM and above 10000 nM.
The corresponding values for `C=CCNCc1cc(-c2cc(OC)ccc2OC)ccc1O` are 1100 nM, 840 nM and above 10000 nM.
In the case of `CC1=NN(c2ccc(C(=O)O)cc2)C(=O)/C1=C\c1ccc([N+](=O)[O-])o1`, the EC50 in data set [1] was above 1250 nM; in data set [2], above 839 nM. In data set [3], this molecule displayed a CC50 above 10000 nM.
Turning to `CCOC(=O)c1ccc(NC(=O)CSc2nc(NCc3ccccc3)c3ccccc3n2)cc1`, the EC50 in data set [1] was above 1140 nM; in data set [2], above 836 nM. In addition, the CC50 in data set [3] is above 10000 nM.
In the case of `Cc1ccc(C(=O)c2c(C)oc3ccc(O)cc23)cc1`, the EC50 is above 1250 nM in data set [1] and above 839 nM in data set [2]. This molecule also registered a CC50 in data set [3] above 10000 nM.
The corresponding values for `CCCCCCOC(=O)C1=C(C)NC(=O)NC1c1ccccc1F` (configuration not stated) are above 6760 nM, above 8310 nM and above 100000 nM.
Taken in the same sequence, the figures for `Cc1ccc(C)c(Nc2nc(NCC3CCCO3)c3ccccc3n2)c1` (configuration not stated) were 1530 nM, 1540 nM and 18600 nM.
For the molecule `O=C(NNS(=O)(=O)c1ccccc1[N+](=O)[O-])c1ccccc1`, the EC50 in data set [1] was above 1250 nM; in data set [2], above 833 nM. Also, the CC50 in data set [3] was above 10000 nM.
For `Cc1nc(N)sc1C(=O)NN=Cc1cccc(Br)c1`, the results for the EC50 in data set [1] and in data set [2] were above 1250 nM and 819 nM, respectively. In data set [3], the CC50 is above 10000 nM.
On to `CC(C)CCNC(=O)C1CSC(c2ccc(F)cc2)N1C(=O)c1ccc(Cl)cc1Cl` (configuration not stated), for which the EC50 in data set [1] is above 12500 nM; in data set [2] it was 8180 nM. In data set [3], the CC50 is above 100000 nM.

One may read the EC50 as the concentration giving half of the maximal effect. The term CC50 denotes the concentration that lowers cell viability or growth by half. Low values mean greater toxicity to the cells, high ones lower toxicity to the cells.
